Earlier results in patent US7550155B2, “Aqueous pharmaceutical compositions of 2,6-diisopropylphenol (propofol) and their uses” (Transform Pharmaceuticals Inc., priority 2002, dated 2009).

Settings: 10% aqueous solution of P188

SMILES: CC(C)c1cccc(C(C)C)c1O [propofol, 2,6-diisopropylphenol]
- Propofol held in aqueous P188 solution: 0.8%
